Assay results published in patent US10052320B2, “Substituted quinoxalines as FGFR kinase inhibitors” (ASTEX THERAPEUTICS LIMITED, priority 2011, dated 2018).
Where two headings read alike, the source gives them in different places.

Key:
FGFR2 (h) = FGFR2 (h) (Homo sapiens, UniProt P21802); experiment: FGFR2 (enzymatic assay), TR-FRET; format: biochemical; conditions: read-out: FGFR 2 pIC50 (converted)
Experimental: In a final reaction volume of 30 μL, FGFR2 (h) (150 ng/ml) was incubated with 50 mM HEPES pH 7.5, 6 mM MnCl2, 1 mM DTT, 0.1 mM Na3VO4, 0.01% Triton-X-100, 500 nM Btn-Flt3 and 0.4 μM ATP in the presence of compound (1% DMSO final). […] Time-Resolved Fluorescence Resonance Energy Transfer (TR-FRET) signal (ex340 nm. Em 620 nm, em 655 nm) was measured afterwards and results are expressed in (Relative Fluorescence Units).

KDR (h) (VEGFR2) = KDR (h) (VEGFR2) (Homo sapiens, UniProt P35968); experiment: KDR (VEGFR2) (enzymatic assay), TR-FRET; format: biochemical
Method in brief: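 Enzyme at 150 ng/ml was incubated 120 min at room temperature with 500 nM Btn-Flt3 peptide and 3 μM ATP in 50 mM HEPES pH 7.5, 6 mM MnCl2, 1 mM DTT, 0.1 mM Na3VO4, 0.01% Triton-X-100, 1% DMSO final. EDTA stop with Eu-anti-P-Tyr/SA-XL-665, 60 min; TR-FRET read in RFU.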

FGFR3 (h) = FGFR3 (h) (Homo sapiens, UniProt P22607); experiment: FGFR3 (enzymatic assay), TR-FRET; format: biochemical; conditions: read-out: FGFR 3 pIC50 (converted)
Experimental: In a final reaction volume of 30 μL, FGFR3 (h) (40 ng/ml) was incubated with 50 mM HEPES pH 7.5, 6 mM MnCl2, 1 mM DTT, 0.1 mM Na3VO4, 0.01% Triton-X-100, 500 nM Btn-Flt3 and 25 μM ATP in the presence of compound (1% DMSO final). […] Time-Resolved Fluorescence Resonance Energy Transfer (TR-FRET) signal (ex340 nm. Em 620 nm, em 655 nm) was measured afterwards and results are expressed in RFU (Relative Fluorescence Units).

FGFR4 (h) = FGFR4 (h) (Homo sapiens, UniProt P22455); experiment: FGFR4 (enzymatic assay), TR-FRET; format: biochemical; conditions: read-out: FGFR 4 pIC50 (converted)
Experimental: In a final reaction volume of 30 μL, FGFR4 (h) (60 ng/ml) was incubated with 50 mM HEPES pH 7.5, 6 mM MnCl2, 1 mM DTT, 0.1 mM Na3VO4, 0.01% Triton-X-100, 500 nM Btn-Flt3 and 5 μM ATP in the presence of compound (1% DMSO final). […] Time-Resolved Fluorescence Resonance Energy Transfer (TR-FRET) signal (ex340 nm. Em 620 nm, em 655 nm) was measured afterwards and results are expressed in RFU (Relative Fluorescence Units).

[1] = target: Ba/F3-FGFR1-transfected cells (Homo sapiens, UniProt P11362); experiment: Ba/F3-FGFR1 (minus IL3) cellular proliferation assay, Alamar Blue; format: cell-based; conditions: for BAF3-FGFR 1 (MIN IL3) 384 well pIC50: minus IL3, 384 well; for BAF3-FGFR 1 (MIN IL3) 96 well pIC50: minus IL3, 96 well
Method in brief: (§1)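 Cells (20000 per well in 384-well format or 10000 per well in 96-well format) in phenol red-free RPMI-1640 with 10% FBS were exposed to compound in DMSO for 24 h at 37 °C, 5% CO2. Resazurin-based Alamar Blue was then added for 4 h, and fluorescence was read at ex 540/em 590 nm.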

[2] = system: Ba/F3-FGFR1-transfected cells in the presence of 10 ng/ml murine IL3; experiment: Ba/F3-FGFR1 (plus IL3) cellular proliferation counterscreen, Alamar Blue; format: cell-based; conditions: Mus musculus
Method in brief: as §1

[3] = target: Ba/F3-FGFR4-transfected cells (Homo sapiens, UniProt P22455); experiment: Ba/F3-FGFR4 cellular proliferation assay, Alamar Blue; format: cell-based
Method in brief: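 Ba/F3 cells transfected with FGFR4, 20000 cells/well in phenol red-free RPMI-1640 with 10% FBS, were exposed to compound for 24 h at 37° C, 5% CO2. Alamar Blue (resazurin) was then added for 4 h, and fluorescence was read at ex 540/em 590 nm.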

[4] = plus IL3, 384 well, read-out: BAF3-FGFR 1 (PLUS IL3) 384 well pIC50 (converted)
[5] = plus IL3, 96 well, read-out: BAF3-FGFR 1 (PLUS IL3) 96 well pIC50 (converted)

Chain of KDR (h) (VEGFR2) (P35968 20-1356): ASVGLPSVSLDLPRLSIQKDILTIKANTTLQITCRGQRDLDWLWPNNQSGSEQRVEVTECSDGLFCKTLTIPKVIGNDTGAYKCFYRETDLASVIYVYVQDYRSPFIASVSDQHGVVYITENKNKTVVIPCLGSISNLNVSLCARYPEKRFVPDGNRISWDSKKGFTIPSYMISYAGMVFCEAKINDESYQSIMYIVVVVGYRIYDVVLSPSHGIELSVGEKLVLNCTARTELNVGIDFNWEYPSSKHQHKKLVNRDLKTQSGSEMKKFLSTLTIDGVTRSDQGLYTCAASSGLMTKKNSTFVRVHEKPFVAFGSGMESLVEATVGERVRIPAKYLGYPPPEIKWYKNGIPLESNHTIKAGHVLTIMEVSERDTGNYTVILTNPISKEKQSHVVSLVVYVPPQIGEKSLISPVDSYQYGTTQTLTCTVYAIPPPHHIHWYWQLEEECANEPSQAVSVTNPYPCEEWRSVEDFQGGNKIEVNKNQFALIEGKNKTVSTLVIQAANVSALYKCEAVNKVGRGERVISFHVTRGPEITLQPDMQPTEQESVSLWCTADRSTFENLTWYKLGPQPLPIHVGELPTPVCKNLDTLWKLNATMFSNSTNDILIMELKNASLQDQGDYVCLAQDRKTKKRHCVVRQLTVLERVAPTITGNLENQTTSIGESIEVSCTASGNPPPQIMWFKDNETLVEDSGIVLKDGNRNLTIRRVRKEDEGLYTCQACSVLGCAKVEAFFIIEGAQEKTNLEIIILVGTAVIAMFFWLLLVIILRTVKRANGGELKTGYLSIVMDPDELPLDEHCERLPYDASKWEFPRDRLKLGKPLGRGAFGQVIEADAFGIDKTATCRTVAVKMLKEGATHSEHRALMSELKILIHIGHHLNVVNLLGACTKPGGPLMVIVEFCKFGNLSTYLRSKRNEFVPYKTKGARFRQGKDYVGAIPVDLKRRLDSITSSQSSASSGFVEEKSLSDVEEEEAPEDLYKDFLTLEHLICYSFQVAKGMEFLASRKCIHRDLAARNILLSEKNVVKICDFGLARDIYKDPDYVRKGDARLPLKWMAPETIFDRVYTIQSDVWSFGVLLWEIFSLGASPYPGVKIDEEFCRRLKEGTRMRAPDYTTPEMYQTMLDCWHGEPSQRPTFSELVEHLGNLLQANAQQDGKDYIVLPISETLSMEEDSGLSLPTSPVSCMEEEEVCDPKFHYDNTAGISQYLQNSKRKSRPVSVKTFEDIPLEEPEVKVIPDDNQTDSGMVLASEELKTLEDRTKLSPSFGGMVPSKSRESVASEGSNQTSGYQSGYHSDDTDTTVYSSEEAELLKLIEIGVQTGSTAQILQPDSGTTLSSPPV
Chain of FGFR2 (h) (P21802 22-821): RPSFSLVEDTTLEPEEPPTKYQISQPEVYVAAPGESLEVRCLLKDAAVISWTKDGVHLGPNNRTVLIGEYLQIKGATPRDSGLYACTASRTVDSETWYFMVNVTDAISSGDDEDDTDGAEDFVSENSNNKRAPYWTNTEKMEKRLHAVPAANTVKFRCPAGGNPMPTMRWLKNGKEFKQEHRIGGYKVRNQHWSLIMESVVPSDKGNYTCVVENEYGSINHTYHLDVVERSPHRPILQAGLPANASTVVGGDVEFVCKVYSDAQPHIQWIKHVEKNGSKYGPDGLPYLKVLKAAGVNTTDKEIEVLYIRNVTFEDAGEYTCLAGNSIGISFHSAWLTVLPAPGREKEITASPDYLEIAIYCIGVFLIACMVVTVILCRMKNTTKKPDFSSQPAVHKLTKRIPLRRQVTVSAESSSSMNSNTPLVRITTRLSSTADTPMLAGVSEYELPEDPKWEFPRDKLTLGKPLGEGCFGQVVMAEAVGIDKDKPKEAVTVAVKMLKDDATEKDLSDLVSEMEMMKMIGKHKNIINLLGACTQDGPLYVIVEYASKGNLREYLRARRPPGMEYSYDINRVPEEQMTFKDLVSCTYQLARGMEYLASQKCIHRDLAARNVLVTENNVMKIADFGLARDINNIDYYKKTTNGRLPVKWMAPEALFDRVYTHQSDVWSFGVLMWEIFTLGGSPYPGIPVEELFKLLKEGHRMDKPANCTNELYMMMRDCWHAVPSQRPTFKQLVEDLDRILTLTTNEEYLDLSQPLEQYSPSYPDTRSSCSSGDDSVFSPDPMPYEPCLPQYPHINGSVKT
Chain of FGFR4 (h) (P22455 22-802): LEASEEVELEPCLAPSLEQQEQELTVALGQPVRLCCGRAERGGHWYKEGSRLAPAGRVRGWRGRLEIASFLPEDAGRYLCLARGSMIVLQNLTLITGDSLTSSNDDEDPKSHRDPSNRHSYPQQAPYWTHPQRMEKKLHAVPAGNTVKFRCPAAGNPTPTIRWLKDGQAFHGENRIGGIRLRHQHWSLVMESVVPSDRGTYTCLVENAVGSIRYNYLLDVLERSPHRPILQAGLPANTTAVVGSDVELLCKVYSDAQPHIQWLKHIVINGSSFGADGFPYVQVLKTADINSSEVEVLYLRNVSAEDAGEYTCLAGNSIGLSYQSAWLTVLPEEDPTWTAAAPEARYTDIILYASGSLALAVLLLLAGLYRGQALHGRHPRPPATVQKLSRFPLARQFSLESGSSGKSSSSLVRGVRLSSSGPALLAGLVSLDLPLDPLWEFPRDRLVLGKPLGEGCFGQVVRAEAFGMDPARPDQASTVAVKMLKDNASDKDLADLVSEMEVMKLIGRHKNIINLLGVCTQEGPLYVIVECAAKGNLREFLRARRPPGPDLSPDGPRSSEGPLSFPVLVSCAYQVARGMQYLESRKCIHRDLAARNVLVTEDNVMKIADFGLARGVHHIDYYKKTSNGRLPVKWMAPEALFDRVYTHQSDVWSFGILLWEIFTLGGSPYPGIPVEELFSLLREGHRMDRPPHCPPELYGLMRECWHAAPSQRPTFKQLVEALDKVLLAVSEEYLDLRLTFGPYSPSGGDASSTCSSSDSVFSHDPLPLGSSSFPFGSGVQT
Chain of Ba/F3-FGFR4-transfected cells (P22455 whole entry, change not shown): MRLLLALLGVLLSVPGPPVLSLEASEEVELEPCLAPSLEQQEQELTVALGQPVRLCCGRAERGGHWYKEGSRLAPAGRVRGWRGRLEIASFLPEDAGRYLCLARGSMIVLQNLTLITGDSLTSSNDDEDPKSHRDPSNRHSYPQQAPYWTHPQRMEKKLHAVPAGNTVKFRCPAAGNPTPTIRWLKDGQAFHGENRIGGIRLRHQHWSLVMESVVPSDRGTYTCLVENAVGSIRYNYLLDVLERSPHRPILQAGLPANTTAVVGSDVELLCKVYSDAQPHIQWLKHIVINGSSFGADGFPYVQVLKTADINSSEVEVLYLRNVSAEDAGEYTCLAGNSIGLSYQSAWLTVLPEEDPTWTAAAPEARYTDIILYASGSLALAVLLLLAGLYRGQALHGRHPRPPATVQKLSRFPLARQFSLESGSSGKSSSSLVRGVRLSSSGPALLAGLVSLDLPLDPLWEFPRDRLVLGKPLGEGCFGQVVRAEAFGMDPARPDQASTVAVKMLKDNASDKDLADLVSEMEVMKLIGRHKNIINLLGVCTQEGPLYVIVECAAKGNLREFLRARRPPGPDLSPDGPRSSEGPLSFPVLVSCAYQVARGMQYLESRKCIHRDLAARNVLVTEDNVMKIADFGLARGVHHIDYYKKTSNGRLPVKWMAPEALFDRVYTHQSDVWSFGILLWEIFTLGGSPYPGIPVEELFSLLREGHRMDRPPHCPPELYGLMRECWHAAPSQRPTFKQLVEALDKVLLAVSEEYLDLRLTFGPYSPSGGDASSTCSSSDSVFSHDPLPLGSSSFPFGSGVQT
Chain of Ba/F3-FGFR1-transfected cells (P11362 whole entry, change not shown): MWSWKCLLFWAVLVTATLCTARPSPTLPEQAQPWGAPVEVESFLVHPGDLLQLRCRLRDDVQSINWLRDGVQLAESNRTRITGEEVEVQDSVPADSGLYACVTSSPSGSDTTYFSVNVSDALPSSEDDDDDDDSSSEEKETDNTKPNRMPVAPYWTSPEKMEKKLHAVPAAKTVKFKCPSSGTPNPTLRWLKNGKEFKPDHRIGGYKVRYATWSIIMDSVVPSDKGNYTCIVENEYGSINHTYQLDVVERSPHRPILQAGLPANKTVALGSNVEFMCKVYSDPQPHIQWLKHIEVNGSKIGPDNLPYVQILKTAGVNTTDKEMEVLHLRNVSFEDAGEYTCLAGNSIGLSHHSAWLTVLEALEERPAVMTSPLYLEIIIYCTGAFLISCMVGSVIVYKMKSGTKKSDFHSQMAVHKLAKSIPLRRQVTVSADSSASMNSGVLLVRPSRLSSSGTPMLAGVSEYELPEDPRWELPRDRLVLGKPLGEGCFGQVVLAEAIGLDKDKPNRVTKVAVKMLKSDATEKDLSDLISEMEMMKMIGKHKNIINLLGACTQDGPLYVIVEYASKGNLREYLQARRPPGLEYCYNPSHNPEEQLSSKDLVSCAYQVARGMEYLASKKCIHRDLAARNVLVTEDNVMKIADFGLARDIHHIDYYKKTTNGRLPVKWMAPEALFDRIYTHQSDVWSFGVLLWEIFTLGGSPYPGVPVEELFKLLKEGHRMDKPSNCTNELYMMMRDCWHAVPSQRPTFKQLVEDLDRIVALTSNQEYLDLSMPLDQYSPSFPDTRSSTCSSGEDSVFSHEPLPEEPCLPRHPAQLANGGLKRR

SMILES | IC50 (FGFR2 (h)) [nM] | IC50 (KDR (h) (VEGFR2)) [nM] | IC50 (FGFR3 (h)) [nM] | IC50 (FGFR4 (h)) [nM] | BAF3-FGFR 1 (MIN IL3) 384 well pIC50 [1] | IC50 [2, 4] [nM] | BAF3-FGFR4 pIC50 [3] | BAF3-FGFR 1 (MIN IL3) 96 well pIC50 [1] | IC50 [2, 5] [nM]
COc1cc(OC)cc(N(CCCNCC(F)(F)F)c2ccc3ncc(-c4ccc(N(C)C(=O)OC(C)(C)C)nc4)nc3c2)c1 [Compound 127] | 363 | > 1000 | 331 | 912 | <5 | > 10000 | <5 | – | –
COc1cc(OC)cc(N(CC2CC2)c2ccc3ncc(-c4nnn[nH]4)nc3c2)c1 [Compound 41] | 178 | 3310 | 64.6 | 79.4 | <5 | > 10000 | <5 | <5 | > 10000
COc1cc(OC)cc(N(CC2CC2)c2ccc3ncc(-n4cncn4)nc3c2)c1 [Compound 50] | ~708 | > 1000 | 447 | > 1000 | <5 | > 10000 | <5 | <5 | > 10000
COc1cc(OC)cc(N(CC2CC2)c2ccc3ncc(-c4cn[nH]n4)nc3c2)c1 [Compound 69] | 166 | > 1000 | 61.7 | 251 | 5.01 | > 10000 | <5 | 5.22 | > 10000
COc1cc(OC)cc(N(CCCO)c2ccc3ncc(-c4ccnc(NC(=O)OC(C)(C)C)c4)nc3c2)c1 [Compound 128] | 135 | > 1000 | 33.9 | > 1000 | <5 | > 10000 | <5 | – | –
COc1cc(OC)cc(N(CC2CO2)c2ccc3ncc(-c4ccc(N)nc4)nc3c2)c1 (stereo not shown) [Compound 110] | 17.4 | 275 | 21.4 | 145 | 6.25 | > 10000 | 6.2 | – | –
COc1cc(OC)cc(N(CCO)c2ccc3ncc(-c4ccc(OC)nc4)nc3c2)c1 [Compound 111] | 23.4 | 741 | 9.77 | 70.8 | 5.65 | > 10000 | 5.9 | – | –
COc1cc(OC)cc(N(CCCO)c2ccc3ncc(-c4ccc(F)nc4)nc3c2)c1 [Compound 117] | 22.4 | 912 | 11.7 | 87.1 | 6.67 | > 10000 | 5.5 | – | –
COc1cc(OC)cc(N(CCCO)c2ccc3ncc(-c4ccnc(N)c4)nc3c2)c1 [Compound 66] | 4.07 | 75.9 | 2.09 | 13.2 | 7.16 | > 10000 | 6.3 | – | –
COc1cc(OC)cc(N(Cc2cccc(CN)n2)c2ccc3ncc(-c4ccc(N)nc4)nc3c2)c1 [Compound 51] | 8.91 | 309 | 11 | 69.2 | 5.88 | > 10000 | 5.7 | – | –
COc1cc(OC)cc(N(CC(O)CO)c2ccc3ncc(-c4ccc(N)nc4)nc3c2)c1 (stereo not shown) [Compound 74] | 11.5 | 309 | 4.37 | 26.9 | 6.62 | > 10000 | 6.1 | – | –
CNc1ccc(-c2cnc3ccc(N(CCCO)c4cc(OC)cc(OC)c4)cc3n2)cn1 [Compound 116] | 10.7 | 135 | 3.24 | 17.8 | 5.9 | > 10000 | 6.4 | – | –
CCOC(=O)c1ncn(-c2cnc3ccc(N(CC4CC4)c4cc(OC)cc(OC)c4)cc3n2)c1C [Compound 65] | > 1000 | > 1000 | > 1000 | > 1000 | <5 | > 10000 | <5 | <5 | > 10000
COc1cc(OC)cc(N(CCCO)c2ccc3ncc(-c4ccc(C)nc4)nc3c2)c1 [Compound 115] | 13.5 | 309 | 4.79 | 38 | 5.93 | – | 5.7 | – | –
COc1cc(OC)cc(N(CC2CC2)c2ccc3ncc(-n4cnc(CO)c4)nc3c2)c1 [Compound 105] | 40.7 | 741 | 13.8 | 132 | 5.32 | – | 5.53 | – | –
COc1cc(OC)cc(N(CCO)c2ccc3ncc(-c4ccc(N)nc4)nc3c2)c1 [Compound 106] | 5.82 | 178 | 3.02 | 19.5 | 6.455 | – | 6.3 | – | –
CNC(=O)c1cc(-c2cnc3ccc(N(CCNCC(F)(F)F)c4cc(OC)cc(OC)c4)cc3n2)ccn1 [Compound 113] | 45.7 | > 1000 | 33.9 | 170 | 5.44 | – | 5.5 | – | –
COc1cc(OC)cc(N(CC2CC2)c2ccc3ncc(C(=O)NCc4ccc(F)cc4)nc3c2)c1 [Compound 101] | > 1000 | > 1000 | > 1000 | > 1000 | <5 | – | <5 | <5 | –
